Drawing on EP4772505A1, “COMPOUND FOR DEGRADING ANDROGEN RECEPTOR AND MEDICAL USE THEREOF” (Ubix Therapeutics, Inc., priority 2023, dated 2025), this text covers concentration and Kp for one molecule.

Read-outs that look alike come from different tables or passages of the source.

The series in a line: Plasma and tumor tissue concentrations following oral administration in VCaP xenograft model (HPLC/MS/MS). It counts as in vivo, mice. Conditions: mouse, 10 mg/kg orally once daily for 3 days. How it is done:
The plasma and tumor tissue concentrations of the drug administered orally to a xenograft model using VCaP cells were analyzed as follows.
[Blood collection and tumor tissue extraction] The prepared drug was administered orally at a dose of 10 mg/kg once daily at the same time for 3 days. The mice were sacrificed 2, 6, and 24 hours after the last administration. Blood collection and tumor tissue extraction were performed immediately after sacrifice at each hour. Blood collected from the heart was placed in a K2EDTA tube for 30 minutes and then centrifuged at 15,000 rpm at 4°C for 10 minutes. The supernatant plasma was separated and stored at -20°C for analysis. The extracted tumor tissue was washed in PBS, cut into pieces of approximately 10 mg, and stored at -80°C for analysis.
[Sample Preparation] Cancer tissue was homogenized once at 5,500 rpm for 20 seconds after adding distilled water 9 times the tissue weight using a tissue homogenizer (Precellys Evolution, Bertin Technology). For cancer tissue, 20 µL of the homogenate was mixed with 20 µL of blank plasma sample, 20 µL of internal standard (carbamazepine, 30 ng/mL in acetonitrile), and 140 µL of acetonitrile. For plasma, 20 µL of the plasma sample was mixed with 20 µL of blank liver tissue sample, 20 µL of internal standard, and 140 µL of acetonitrile. Afterwards, the mixed sample was suspended for 10 minutes using a vortex mixer and centrifuged at 13,500 rpm for 10 minutes at room temperature. 140 µL of the supernatant was collected and transferred to an analysis container.
[Sample Analysis] Drug concentrations in cancer tissue and plasma samples were quantified using an HPLC/MS/MS system. 5 µL of the sample prepared in the analytical vessel was injected into the HPLC/MS/MS system for analysis. For drug quantification, a combination of 0.1% formic acid in distilled water and 0.1% formic acid in acetonitrile was used as the mobile phase. The analytical column used was a reverse-phase C18 column, and chromatograms were analyzed using isocratic elution. Ion detection was performed in ESI positive MRM mode, and peak integration was performed using Analyst software version 1.6.4 (Applied Biosystems/MDS SCIEX). Drug concentrations in cancer tissue were calculated by multiplying the concentrations obtained from the analysis of cancer tissue homogenate by a dilution factor of 10.

Take `N#Cc1ccc(N2CCC(C(=O)Nc3ccc(OC4CCN(CC5CCN(c6ccc(N[C@H]7CCC(=O)NC7=O)cc6F)CC5)CC4)cn3)CC2)cc1C(F)(F)F` [Example 2, (S)-1-(4-cyano-3-(trifluoromethyl)phenyl)-N-(5-((1-((1-(4-((2,6-dioxopiperidin-3-yl)amino)-2-fluorophenyl)piperidin-4-yl)methyl)piperidin-4-yl)oxy)pyridin-2-yl)piperidine-4-carboxamide]: the concentration at 2 h (plasma, 2 hours after the last administration, read-out: Concentration in Plasma) stood at 816 ng/mL and the concentration at 2 h (tumor tissue, 2 hours after the last administration, read-out: Concentration in Tumor Tissue) amounted to 5560 ng/g. The concentration at 6 h was determined as 610 ng/mL (plasma, 6 hours after the last administration, read-out: Concentration in Plasma) and 6130 ng/g (tumor tissue, 6 hours after the last administration, read-out: Concentration in Tumor Tissue). The concentration at 24 h (plasma, 24 hours after the last administration, read-out: Concentration in Plasma) came out at 51 ng/mL and the concentration at 24 h (tumor tissue, 24 hours after the last administration, read-out: Concentration in Tumor Tissue) turned out to be 834 ng/g. Moreover, the Kp at 2 h (tumor tissue / plasma, 2 hours after the last administration, read-out: Tissue to Plasma Ratio) was determined as 6.78. Also, for the setting “tumor tissue / plasma, 6 hours after the last administration, read-out: Tissue to Plasma Ratio”, the Kp at 6 h is 10.1. In addition, under “tumor tissue / plasma, 24 hours after the last administration, read-out: Tissue to Plasma Ratio”, the Kp at 24 h was determined as 16.3.
